Data published in PubChem BioAssay (NCI).
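All cell lines were grown in 96-well plates and treated with compound for 48 hours. GI50 marks 50% less growth. TGI: total growth inhibition.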

These compounds were tested on HT29 colon (assay: NCI anticancer screen, dose series, 48 h).

SMILES | TGI
CCOC(=O)NC(=O)c1cn(C2CCCCC2)c(=O)[nH]c1=O | > 100 µM
Cn1c(=O)nc2n(-c3cc(C(F)(F)F)cc(C(F)(F)F)c3)c3ccccc3nc-2c1=O | > 100 µM

These compounds were tested on SK-MEL-2 melanoma (assay: NCI anticancer screen, dose series, 48 h).

SMILES | GI50 | TGI
O=C(O)c1cccc(COc2ccc([N+](=O)[O-])cc2Cl)c1 | > 100 µM | > 100 µM
Nc1ccccc1C(=O)/C=C/c1c(O)ccc2ccccc12 |  | > 100 µM
CCC(C)(O)c1cnc(CC(C)C)c(=O)n1O (stereo not drawn) |  | > 100 µM
CCC1CN2CCc3cc(OC)c(OC)cc3C2CC1CC1c2cc(OC)c(OC)cc2CCN1C(=O)C1CCCN1 (stereo not drawn) |  | 68.7 µM
CC(C(=O)c1ccc(Cl)cc1)/C(=N/NC(=O)NN)C(=O)Nc1cccc(C(F)(F)F)c1 (stereo not drawn) |  | > 100 µM
COc1cc2c(/C=N\N=C(N)N)c[nH]c2cc1C | 32.7 µM | > 100 µM
CCOP(=O)(OCC)C(C(=O)OC)C(=O)C(=O)Nc1ccc(Cl)cc1Cl (stereo not drawn) |  | > 100 µM
CC(C)=C1CCC(CN(C)C)C1=O (stereo not drawn) |  | 78.4 µM
COc1cccc(/C=N/[N-]C(=O)c2ccncc2)c1[O-].COc1cccc(/C=N/[N-]C(=O)c2ccncc2)c1[O-].[O]=[U](=[O])([OH2+])[OH2+] | 19.8 µM | > 74 µM
CC(C)(C)c1ccc2c(c1)S(=O)(=O)Nc1ccc(Cl)cc1NS(=O)(=O)c1cc(C(C)(C)C)ccc1OCCOCCOCCO2 |  | > 100 µM
O=C1c2ccccc2-c2c1c1ccccc1c(=O)n2CCN1CCNCC1 | 12.7 µM | 36.2 µM
N#CC(=Nc1ccccc1N(C(=O)c1ccccc1)C(=O)c1ccccc1)c1ccccc1 |  | > 100 µM
COc1c(C)n(CCO)ccc1=O |  | > 100 µM
COC(=O)C(=O)C(C(C)=O)C(=O)NCc1ccc(OC)c(OC)c1 (stereo not drawn) |  | > 100 µM
Nc1c(-c2ccccc2-c2c(N)[n+]([O-])c3ccccc3[n+]2[O-])[n+]([O-])c2ccccc2[n+]1[O-] |  | > 100 µM
CCOC(=O)NC(=O)c1cn(C(CC)COC(=O)NCCCCCCNC(=O)OCC(CC)n2cc(C(=O)NC(=O)OCC)c(=O)[nH]c2=O)c(=O)[nH]c1=O (stereo not drawn) |  | > 100 µM
O=C(CC(=O)C1CCOC1=O)C(=O)Nc1cccc(Cl)c1 (stereo not drawn) |  | > 100 µM

SMILES | GI50 | TGI
CCN1c2ccccc2-c2c3c1cc(C)cc3c1ccccc1[n+]2CC |  | 4.29 µM
Cc1cccc(C2=C/C(=C(\SS/C(C(=O)c3ccc(OCC(=O)O)c(Cl)c3Cl)=C3\C=C(c4cccc(C)c4)SS3)C(=O)c3ccc(OCC(=O)O)c(Cl)c3Cl)SS2)c1 |  | 39.8 µM
CC(=O)N1CCN(c2ccc(OCC3COC(Cn4ccnc4)(c4ccc(Cl)cc4Cl)O3)cc2)CC1 (stereo not drawn) |  | 39.1 µM
O=C(Cc1nc2c3c(ccc2[nH]c1=O)C(=O)c1ccccc1C3=O)C(=O)Nc1ccccc1[N+](=O)[O-] |  | 45.4 µM
CC1=C(C#N)C(=O)CC(c2ccc(Cl)cc2)N(C)N1 (stereo not drawn) |  | > 100 µM
Nc1nc(-c2ccc(Cl)c([N+](=O)[O-])c2)cs1 |  | > 100 µM
COc1cc(/C=C\c2cc(OC)c(OC)c(OC)c2)cc(N/C=C\C(=O)c2c[nH]c3ccccc23)c1OC | 2.21 µM | 4.68 µM
O=C(N/C(=C\c1ccc([N+](=O)[O-])cc1)c1nc2ccccc2[nH]1)c1ccccc1 |  | > 100 µM
COC(=O)/C([Se]c1c(C)cc(C)cc1C)=C(/[Se]c1c(C)cc(C)cc1C)C(=O)OC |  | > 100 µM
NC(=O)C(=O)CC(=O)c1ccccc1NC1=CC(=O)C(=O)c2ccccc21 |  | > 100 µM
Cc1cc2c(c(C(N)=O)c1C)-c1ccccc1C2=O |  | > 100 µM
CCCC(=O)C1=C(O)C(Cc2c(O)c(C)c(O)c(C(=O)CCC)c2O)=C(O)C(C)(C)C1=O |  | > 50 µM
COC(=O)/C(=N/O)C(C(=O)C=C(C)C)C(=O)C(=O)Nc1nc2ccc([N+](=O)[O-])cc2s1 (stereo not drawn) |  | 71.9 µM
Cc1ccccc1C1=[N+]([O-])c2ccc(Cl)cc2C1=O |  | 46 µM
c1coc(-c2c3ccc(=[N+]4CCCCC4)cc-3oc3cc(N4CCCCC4)ccc23)c1 | 0.119 µM | 1.09 µM
CCOC(=O)NC(=O)c1cn(C2CCCCC2)c(=O)[nH]c1=O |  | > 100 µM
Cn1c(=O)nc2n(-c3cc(C(F)(F)F)cc(C(F)(F)F)c3)c3ccccc3nc-2c1=O |  | > 100 µM

What follows are compounds tested on MCF7 breast (assay: NCI anticancer screen, dose series, 48 h).

SMILES | GI50 | TGI
O=C(O)c1cccc(COc2ccc([N+](=O)[O-])cc2Cl)c1 | > 100 µM | > 100 µM
COc1cc2c(/C=N\N=C(N)N)c[nH]c2cc1C | 13 µM | 25.7 µM
O=C1c2ccccc2-c2c1c1ccccc1c(=O)n2CCN1CCNCC1 | 0.836 µM | 17.5 µM
